Measurements: PMC3515623, “WIKI4, a Novel Inhibitor of Tankyrase and Wnt/ß-Catenin Signaling” (PLoS ONE, 2012)

Target: T1, TNKS2 (Homo sapiens, UniProt Q9H2K2)
T1 construct: Recombinant GST-TNKS2
T1 sequence (Q9H2K2 1-1166): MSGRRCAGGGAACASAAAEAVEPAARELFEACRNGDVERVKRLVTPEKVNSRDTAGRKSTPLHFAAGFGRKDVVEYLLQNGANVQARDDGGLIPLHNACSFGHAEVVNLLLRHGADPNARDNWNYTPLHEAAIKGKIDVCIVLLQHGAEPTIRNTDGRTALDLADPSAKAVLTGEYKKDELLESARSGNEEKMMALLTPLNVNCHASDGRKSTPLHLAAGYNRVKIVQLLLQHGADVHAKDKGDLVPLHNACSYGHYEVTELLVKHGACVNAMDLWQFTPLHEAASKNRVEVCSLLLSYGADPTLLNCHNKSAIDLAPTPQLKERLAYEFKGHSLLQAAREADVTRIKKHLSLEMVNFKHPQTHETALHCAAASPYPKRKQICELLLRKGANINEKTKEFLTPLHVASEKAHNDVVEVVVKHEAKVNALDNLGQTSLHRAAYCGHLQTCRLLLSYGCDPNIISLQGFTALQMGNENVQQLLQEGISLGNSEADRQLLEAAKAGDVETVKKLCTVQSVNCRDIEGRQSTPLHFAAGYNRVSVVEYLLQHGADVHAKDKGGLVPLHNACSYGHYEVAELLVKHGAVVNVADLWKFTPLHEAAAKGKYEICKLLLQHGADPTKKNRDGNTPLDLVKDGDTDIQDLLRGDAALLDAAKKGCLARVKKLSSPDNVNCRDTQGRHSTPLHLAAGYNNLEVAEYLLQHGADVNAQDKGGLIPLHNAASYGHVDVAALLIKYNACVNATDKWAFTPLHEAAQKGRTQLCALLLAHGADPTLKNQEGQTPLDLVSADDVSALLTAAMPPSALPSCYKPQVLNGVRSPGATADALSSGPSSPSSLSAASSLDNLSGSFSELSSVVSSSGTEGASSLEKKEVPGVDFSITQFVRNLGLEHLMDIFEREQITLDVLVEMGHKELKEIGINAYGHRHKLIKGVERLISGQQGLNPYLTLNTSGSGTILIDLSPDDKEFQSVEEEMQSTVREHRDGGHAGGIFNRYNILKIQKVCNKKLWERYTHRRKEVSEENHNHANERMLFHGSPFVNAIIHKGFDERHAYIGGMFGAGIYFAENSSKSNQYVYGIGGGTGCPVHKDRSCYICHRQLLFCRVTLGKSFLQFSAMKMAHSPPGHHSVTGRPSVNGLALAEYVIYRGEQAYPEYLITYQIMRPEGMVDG
Assay: in vitro auto-ADP-ribosylation assay with recombinant GST-TNKS2, biotinylated substrate, chemiluminescent detection
Format: biochemical

Question: How did the IC50 turn out when COc1ccc(-n2c(SCCCN3C(=O)c4cccc5cccc(c45)C3=O)nnc2-c2ccncc2)cc1 [WIKI4] was run?
Answer: ~15 nM
